Data on 15 compounds can be found in ChEMBL document CHEMBL4715712 (Bioorg Med Chem Lett, 2016).

Data set [1] deals with T1, Prostaglandin G/H synthase 1 (Ovis aries, UniProt P05979).
T1 sequence (P05979 whole entry): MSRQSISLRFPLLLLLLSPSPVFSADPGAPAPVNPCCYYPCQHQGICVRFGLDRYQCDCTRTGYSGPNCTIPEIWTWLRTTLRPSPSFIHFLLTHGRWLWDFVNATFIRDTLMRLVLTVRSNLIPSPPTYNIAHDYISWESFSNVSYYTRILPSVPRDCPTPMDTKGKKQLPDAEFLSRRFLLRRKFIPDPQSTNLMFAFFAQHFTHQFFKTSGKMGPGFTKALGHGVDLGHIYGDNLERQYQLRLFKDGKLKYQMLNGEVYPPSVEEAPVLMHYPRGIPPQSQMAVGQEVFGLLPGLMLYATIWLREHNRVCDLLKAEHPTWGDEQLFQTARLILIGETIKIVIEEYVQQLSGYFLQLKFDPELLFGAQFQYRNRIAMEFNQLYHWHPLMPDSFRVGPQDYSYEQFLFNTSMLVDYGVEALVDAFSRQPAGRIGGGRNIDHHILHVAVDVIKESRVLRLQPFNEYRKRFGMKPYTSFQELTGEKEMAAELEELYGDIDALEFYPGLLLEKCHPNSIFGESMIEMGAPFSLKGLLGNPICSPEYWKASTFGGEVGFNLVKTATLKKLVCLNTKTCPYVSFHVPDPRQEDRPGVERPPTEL
Kind of data set: Inhibition of Ovine COX-1 assessed as decrease in prostaglandin production using arachidonic acid as substrate pretreated for 15 mins followed by substrate addition and measured after 2 mins by enzyme immunoassay.

Data set [2] in a line: Inhibition of soya bean 15-LOX by enzyme immunoassay. On the set-up: species or system Glycine max.
A further data set relates to Rattus norvegicus. Kind of data set: Antiinflammatory activity against po dosed Wistar albino rat model of carrageenan-induced foot paw edema after 3 hrs. The data set is classed as functional.
Data set [3] can be described thus: Ulcerogenic activity in rat assessed as average severity of ulcers at 50 mg/kg, po administered once daily for 3 consecutive days and measured after 1 hr post last dose (reference value: 0). It is filed as toxicity, organism-based. The settings on record: in vivo.
Data set [4] can be described thus: Ulcerogenic activity in rat assessed as average number of ulcers at 50 mg/kg, po administered once daily for 3 consecutive days and measured after 1 hr post last dose (reference value: 0). The data set is classed as toxicity, organism-based. Particulars: in vivo.
Data set [5] can be described thus: Ulcerogenic activity in rat assessed as incidence of ulcer at 50 mg/kg, po administered once daily for 3 consecutive days and measured after 1 hr post last dose (reference value: 0%). It is filed as toxicity, organism-based. The settings on record: in vivo.
The nature of data set [6]: Ulcerogenic activity in rat assessed as ulcer index at 50 mg/kg, po administered once daily for 3 consecutive days and measured after 1 hr post last dose. The settings on record: in vivo, 72 h, time 3 day. It is filed as toxicity, organism-based.

As for `COc1cc([C@@H]2CC(c3sc(-c4ccccc4)nc3C)=NN2c2ccc(S(N)(=O)=O)cc2)cc(OC)c1OC`, the IC50 in data set [1] worked out at 5.8 µM; in data set [2], 4.7 µM. Also, the median effective dose (ED50) in the data set on Rattus norvegicus is 45 µmol/kg. Further, the Activity is 0.53 in data set [3], 0.3 in data set [4] and 30% in data set [5]. Moreover, the UI in data set [6] is on record as 3.83.

Take `COc1cccc([C@@H]2CC(c3sc(-c4ccccc4)nc3C)=NN2c2ccc(S(N)(=O)=O)cc2)c1OC`: the IC50 in data set [1] came to 10.2 µM; in data set [2] it was 8.9 µM. The compound also displayed a 50% effective dose (ED50) in the data set on Rattus norvegicus of 47 µmol/kg. Also, the figures for the Activity in data set [3], in data set [4] and in data set [5] were 0.73, 0.2 and 20%, respectively. For the same compound, the UI in data set [6] was 2.93.

Consider `COc1cccc(/C=C/C(=O)c2sc(-c3ccccc3)nc2C)c1OC`, for which the IC50 in data set [1] came to 7.2 µM; in data set [2], 6.22 µM. In addition, in the data set with Rattus norvegicus, the 50% effect level (ED50) was put at a dose of 59 µmol/kg. Also, the Activity worked out at 1.03 in data set [3], 0.6 in data set [4] and 50% in data set [5]. Also, the UI in data set [6] is on record as 6.63.

Regarding `CC(=O)Oc1ccccc1C(=O)O` [ASPIRIN], in the data set with Rattus norvegicus, the ED50 stood at 714 µmol/kg.

For the compound `COC(=O)/C(O)=C/C(=O)c1sc(-c2ccccc2)nc1C`, the Activity was 0.39 in data set [3], 0.4 in data set [4] and 30% in data set [5]. Besides, the UI in data set [6] is on record as 3.79.

Regarding `COc1cc(/C=C/C(=O)c2sc(-c3ccccc3)nc2C)cc(OC)c1OC`, the values for the IC50 in data set [1] and in data set [2] were 6.7 µM and 5.8 µM, respectively. In the data set with Rattus norvegicus, this compound registered an ED50 of 45 µmol/kg. For the same compound, the Activity was 0.52 in data set [3], 0.4 in data set [4] and 30% in data set [5]. For the same compound, the UI in data set [6] is on record as 3.92.

On to `COc1cc([C@@H]2CC(c3sc(-c4ccccc4)nc3C)=NN2c2ccc(S(C)(=O)=O)cc2)cc(OC)c1OC`, for which the IC50 in data set [1] is 7.5 µM; in data set [2], 6.4 µM. The compound also returned a median effective dose (ED50) with Rattus norvegicus of 87 µmol/kg. The Activity was 0.18 in data set [3], 0.6 in data set [4] and 20% in data set [5]. Moreover, the UI in data set [6] worked out at 2.78.

As for `COc1ccc([C@@H]2CC(c3sc(-c4ccccc4)nc3C)=NN2c2ccc(S(N)(=O)=O)cc2)cc1OC`, the values for the IC50 in data set [1] and in data set [2] were 8.6 µM and 7.4 µM, respectively. For the same compound, in the data set on Rattus norvegicus, the 50% effective dose (ED50) is 55 µmol/kg. For the same compound, the values for the Activity in data set [3], in data set [4] and in data set [5] were 0.68, 0.4 and 30%, respectively. For the same compound, in data set [6], the UI came to 4.08.

Turning to `COc1ccc([C@@H]2CC(c3sc(-c4ccccc4)nc3C)=NN2c2ccc(S(C)(=O)=O)cc2)cc1OC`, the IC50 was found to be 8.4 µM in data set [1] and 7.4 µM in data set [2]. This compound also returned an ED50 in the data set with Rattus norvegicus of 52 µmol/kg. Also, the Activity is 0.85 in data set [3], 0.5 in data set [4] and 30% in data set [5]. Moreover, the UI in data set [6] stood at 4.35.

Consider `Cc1ccc(-c2cc(C(F)(F)F)nn2-c2ccc(S(N)(=O)=O)cc2)cc1` [CELECOXIB], for which the 50% effect level in the data set on Rattus norvegicus (ED50) was put at a dose of 47 µmol/kg. Also, the Activity in data set [3] is 0.5; in data set [4], 0.4; in data set [5], 20%. Further, the UI in data set [6] turned out to be 2.9.

On to `COC(=O)c1cc(-c2sc(-c3ccccc3)nc2C)nn1-c1ccc(S(C)(=O)=O)cc1`, for which the IC50 in data set [1] amounted to 6.8 µM; in data set [2], 5.9 µM. The compound also gave an ED50 in the data set with Rattus norvegicus of 90 µmol/kg. Besides, the Activity was 0.28 in data set [3], 0.2 in data set [4] and 20% in data set [5]. Further, in data set [6], the UI is reported as 2.48.

As for `Cc1ccc(Cl)c(Nc2ccccc2C(=O)O)c1Cl` [MECLOFENAMATE SODIUM], the IC50 in data set [2] came to 5.64 µM.

As to `COc1cccc([C@@H]2CC(c3sc(-c4ccccc4)nc3C)=NN2c2ccc(S(C)(=O)=O)cc2)c1OC`, the IC50 came to 6.5 µM in data set [1] and 5.6 µM in data set [2]. In the data set with Rattus norvegicus, the ED50 was determined as 70 µmol/kg. Also, the values for the Activity in data set [3], in data set [4] and in data set [5] were 0.25, 0.4 and 20%, respectively. The UI in data set [6] amounted to 2.65.

In the case of `COc1ccc(/C=C/C(=O)c2sc(-c3ccccc3)nc2C)cc1OC`, the IC50 in data set [1] is 3.9 µM; in data set [2], 2.8 µM. This compound also came in with an ED50 in the data set on Rattus norvegicus of 80 µmol/kg. The Activity amounted to 0.57 in data set [3], 0.3 in data set [4] and 30% in data set [5]. For the same compound, in data set [6], the UI worked out at 3.87.

In the case of `COC(=O)c1cc(-c2sc(-c3ccccc3)nc2C)nn1-c1ccc(S(N)(=O)=O)cc1`, the half-maximal inhibitory concentration (IC50) in data set [1] worked out at 6.5 µM; in data set [2], 6.02 µM. In the data set with Rattus norvegicus, the ED50 was 74 µmol/kg. For the same compound, the Activity in data set [3] came out at 0.17; in data set [4], 0.5; in data set [5], 20%. In addition, the UI in data set [6] is 2.67.
